Data from US11197840B2, “Methods of treating or alleviating mental disorders and associated symptoms” (The Florey Institute of Neuroscience and Mental Health, priority 2015, dated 2021).

Experiments:
[1] = tested on: male ArKO (aromatase knockout) mice; assay: Water mist spray triggered grooming in male ArKO mice treated with 10-HDA; type: in vivo, mouse
Description: Specifically, male 3 month-old ArKO mice (n=5) were injected daily with 10-HDA (500 μg/kg) for 1 week. Similarly to Example 1 (see above), water mist spray triggered grooming was assessed before and after administration of 10-HDA treatment. During grooming assessment, each mouse was subjected to two squirts of sterile water mist spray and its grooming activity was recorded for 10 min immediately after the mist spray. Grooming duration was analyzed statistically by paired t test. […] Further grooming assessment was performed 5 days after the last administration of 10-HDA.

dynamin 3 = assay: Next Generation Sequencing (RNAseq) of primary cortical neurons: dynamin 3 transcript; type: cell-based, mouse; settings: 1 mM 10-HDA vs DMSO, primary cortical neurons of C57Black 6 mice, harvested Day 7
Description: (§1) Foetal cortices of C57Black 6 mice (gestational days 15) were micro-dissected and subjected to trypsin digestion and mechanical trituration and centrifugation. The pelleted cells were resuspended in Neurobasal™ medium (NBM) containing 2.5% B-27 supplement, 1% penicillin, 1% streptomycin, 0.25% GlutaMAX-1 supplement and 10% dialysed foetal calf serum. Cells were seeded on poly-d-lysine (100 μg/ml) coated 12-well plates to a density of […]. Cultures were maintained at 37° C. in a humidified 5% CO2 and 95% air incubator and were subsequently cultured after day 1 in serum-free medium. After 24 hours, primary cortical neurons were treated with DMSO or 1 mM 10-HDA, and harvested for total RNA preparation on Day 7 for subsequent Next Generation Sequencing (RNAseq). […]
(§2) Total RNA was extracted from each sample using the PARIS kit (Ambion). The quality of RNA was assessed by LabChip® (Perkin Elmer). […] The libraries were sequenced with 50 bp single end reads using Illumina Hiseq and subjected to bioinformatic analyses. Sequencing data were assessed (FastQC) and aligned to mouse genome using Subjunc aligner within the Subread package. Sequencing data was summarised into Reads per transcript using Feature counts and the Gencode gene models for the mouse genome build. […]

[2] = tested on: 5-hydroxytryptamine (serotonin) receptor 2C; assay: Next Generation Sequencing (RNAseq) of primary cortical neurons: 5-hydroxytryptamine receptor 2C transcript; type: cell-based, mouse; settings: 1 mM 10-HDA vs DMSO, primary cortical neurons of C57Black 6 mice, harvested Day 7
Description: as §1, §2

male ArKO mice = assay: Behavioural disturbances of male ArKO mice (wheel running, compulsive grooming); type: in vivo, mouse; settings: administration to male ArKO mice; general statement
Description: Specifically, the grooming activity of each animal was analysed for 20 min after administration of water mist spray (a trigger for grooming). […] Compulsive grooming observed in ArKO represents an OCD-like repetitive behavioural disturbance in OCD-patients.

For O=C(O)C=CCCCCCCCO [10-HDA, 10-hydroxy-2-decenoic acid], the “grooming duration after the withdrawal period” value ([1]; 5 days after the last administration of 10-HDA, male ArKO mice) was “return to pre-treatment levels”, the “duration of grooming after administration of 10-HDA” value ([1]; male 3 month-old ArKO mice, 500 μg/kg injected daily for 1 week, 10 min after water mist spray, before vs after treatment, paired t test p=0.0363) was “significant reduction” and the “transcript expression level of dynamin 3” value (dynamin 3) was “significantly upregulated”. The “transcript expression level of 5-hydroxytryptamine (serotonin) receptor 2C” value [2] was “significantly upregulated” and the “behavioural disturbances, including wheel running and/or compulsive grooming” value (male ArKO mice) was “alleviated one or more of the behavioural disturbances”.
